Measured values from patent US9873883B2, “Glyphosate resistant plants and associated methods” (Dow AgroSciences LLC, priority 2012, dated 2018).

System: dgt-14 soybean plants
Test: Glyphosate tolerance of dgt-14 soybean
Type: in vivo, Glycine max
Details: sprayed
Description: Terminal leaflets of selected plantlets are treated topically (leaf paint technique) with a herbicide to screen for putative transformants. The screened plantlets are transferred to the greenhouse, allowed to acclimate and then leaf-painted with a herbicide to reconfirm tolerance. These putative transformed T0 plants are sampled and molecular analyses is used to confirm the presence of the selectable marker and the dgt-14 transgene. Several events are identified as containing the transgenes. These T0 plants are advanced for further analysis and allowed to self fertilize in the greenhouse to give rise to T1 seed. Soybean plants containing the dgt-14 transgene are obtained. The dgt-14 soybean plants are sprayed with varying concentrations of glyphosate and shown to provide tolerance to glyphosate at concentrations up to 3360 g ae/ha.

O=C(O)CNCP(=O)(O)O [glyphosate, N-(phosphonomethyl)glycine]
tolerance to glyphosate at concentrations up to: up to 3360 g ae/ha
